Source: publication PMC10598672, “A hybrid energy-based and AI-based screening approach for the discovery of novel inhibitors of JAK3” (Frontiers in Medicine, 2023)

Columns and labels:
JAK3 [1] = target: T1, JAK3 (Homo sapiens, UniProt P52333); assay: HTRF kinase assay, inhibition rate at […]; type: biochemical; details: read-out: Inhibit rate (%)
T1 sequence (P52333 1-1124): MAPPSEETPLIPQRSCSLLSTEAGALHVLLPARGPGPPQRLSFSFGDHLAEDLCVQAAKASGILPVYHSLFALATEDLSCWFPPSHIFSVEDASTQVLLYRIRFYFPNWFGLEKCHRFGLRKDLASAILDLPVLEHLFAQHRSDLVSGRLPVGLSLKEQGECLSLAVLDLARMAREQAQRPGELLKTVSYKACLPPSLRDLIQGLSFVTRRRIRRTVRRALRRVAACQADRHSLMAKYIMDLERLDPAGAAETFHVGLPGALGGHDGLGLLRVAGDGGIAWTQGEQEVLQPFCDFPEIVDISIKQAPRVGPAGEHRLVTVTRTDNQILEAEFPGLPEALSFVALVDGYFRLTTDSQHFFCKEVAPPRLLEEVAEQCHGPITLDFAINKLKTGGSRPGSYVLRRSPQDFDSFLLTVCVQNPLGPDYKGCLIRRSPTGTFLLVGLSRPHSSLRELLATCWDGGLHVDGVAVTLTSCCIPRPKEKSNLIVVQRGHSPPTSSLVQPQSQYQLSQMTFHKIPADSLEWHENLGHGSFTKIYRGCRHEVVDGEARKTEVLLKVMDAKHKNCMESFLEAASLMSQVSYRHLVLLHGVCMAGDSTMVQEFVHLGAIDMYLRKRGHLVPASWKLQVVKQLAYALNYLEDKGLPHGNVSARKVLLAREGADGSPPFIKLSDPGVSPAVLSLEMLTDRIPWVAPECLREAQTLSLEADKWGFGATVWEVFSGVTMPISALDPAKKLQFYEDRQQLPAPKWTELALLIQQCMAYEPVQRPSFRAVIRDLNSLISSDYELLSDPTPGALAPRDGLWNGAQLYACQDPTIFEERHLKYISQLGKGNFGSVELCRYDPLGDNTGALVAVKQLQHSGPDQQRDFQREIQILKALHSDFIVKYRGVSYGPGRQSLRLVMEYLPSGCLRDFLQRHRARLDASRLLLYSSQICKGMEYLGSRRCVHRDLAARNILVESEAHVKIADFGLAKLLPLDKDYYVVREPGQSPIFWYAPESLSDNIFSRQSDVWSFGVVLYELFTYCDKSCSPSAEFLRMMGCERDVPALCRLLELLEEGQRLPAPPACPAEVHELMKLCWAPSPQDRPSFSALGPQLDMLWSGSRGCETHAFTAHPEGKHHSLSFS

JAK3 [2] = target: T1, JAK3; assay: HTRF kinase assay (Cryptate/XL665), dose-response IC50; type: biochemical

inhibition at 25 µM (JAK3 [1]) [%] | Structure (SMILES) | IC50 (JAK3 [2]) [µM]
75.2 ± 0.85 | CN1CCN(c2ccc(Nc3ncc4cc(C#N)c(=O)n(C5CCCC5)c4n3)cc2)CC1 [compound 5] | –
– | CC(=O)Nc1cc(Oc2ccc3c(C(=O)Nc4ccc(CN5CCN(C)CC5)c(C(F)(F)F)c4)cccc3c2)ncn1 [compound 8] | 4.11
93.37 ± 0.01 | CN1CCC(Nc2nc(Nc3ccc(Oc4ccccc4)cc3)c3c(=O)[nH]cc(Br)c3n2)CC1 [compound 4] | –
